Experimental findings from US9688691B2, “Macrocyclic quinazole derivatives and their use as MTKI” (Janssen Pharmaceutica NV, priority 2004, dated 2017) are described below.

The term inhibition denotes the drop in the measured response relative to a control, in per cent.

Where only a bound is given, the exact number is not on record here.

Common to all, as to type: biochemical
In one experiment the target is ErbB4 (h) (Homo sapiens, UniProt Q15303). Put plainly: Kinase profiling, glass-fiber filter technology: ErbB4. Conditions: test concentration of 10^−6 M; read-out: ErbB4 inhibition score. The procedure:
(§1) The in vitro inhibition of a panel of kinases was assessed using the glass-fiber filter technology as described by Davies, S. P. et al., Biochem J. (2000), 351; p. 95-105.
(§2) In the glass-fiber filter technology the activity of the kinase of interest is measured using an appropriate substrate that is incubated with the aforementioned kinase protein in the presence of (^33P) radiolabeled ATP. (^33P) Phosporylation of the substrate is subsequently measured as radioactivity bound on a glassfiber-filter.
(§3) All kinases are pre-diluted to a 10× working concentration prior to addition into the assay. The composition of the dilution buffer for each kinase is detailed below.
(§4) All substrates are dissolved and diluted to working stocks in de-ionised water.
(§5) In a final reaction volume of 25 μl, ErbB4 (h) (5-10 mU) is incubated with 8 mM MOPS pH 7.0, 0.2 mM EDTA, 10 mM MnCl2, 0.1 mg/ml poly(Glu, Tyr) 4:1, 10 mM MgAcetate and [γ-33P-ATP] (specific activity approx. 500 cpm/pmol, concentration as required). The reaction is initiated by the addition of the MgATP mix. After incubation for 40 minutes at room temperature, the reaction is stopped by the addition of 5 μl of a 3% phosphoric acid solution. 10 μl of the reaction is then spotted onto a Filtermat A and washed three times for 5 minutes in 75 mM phosphoric acid and once in methanol prior to drying and scintillation counting.

The next experiment deals with Flt1 human (Homo sapiens, UniProt P17948). Put plainly: Kinase profiling, glass-fiber filter technology: Flt1. The settings on record: test concentration of 10^−6 M; read-out: Flt1 inhibition score. As for the experimental part: as §1, §2, §3, §4
Flt1 human, sequence (P17948 27-1338): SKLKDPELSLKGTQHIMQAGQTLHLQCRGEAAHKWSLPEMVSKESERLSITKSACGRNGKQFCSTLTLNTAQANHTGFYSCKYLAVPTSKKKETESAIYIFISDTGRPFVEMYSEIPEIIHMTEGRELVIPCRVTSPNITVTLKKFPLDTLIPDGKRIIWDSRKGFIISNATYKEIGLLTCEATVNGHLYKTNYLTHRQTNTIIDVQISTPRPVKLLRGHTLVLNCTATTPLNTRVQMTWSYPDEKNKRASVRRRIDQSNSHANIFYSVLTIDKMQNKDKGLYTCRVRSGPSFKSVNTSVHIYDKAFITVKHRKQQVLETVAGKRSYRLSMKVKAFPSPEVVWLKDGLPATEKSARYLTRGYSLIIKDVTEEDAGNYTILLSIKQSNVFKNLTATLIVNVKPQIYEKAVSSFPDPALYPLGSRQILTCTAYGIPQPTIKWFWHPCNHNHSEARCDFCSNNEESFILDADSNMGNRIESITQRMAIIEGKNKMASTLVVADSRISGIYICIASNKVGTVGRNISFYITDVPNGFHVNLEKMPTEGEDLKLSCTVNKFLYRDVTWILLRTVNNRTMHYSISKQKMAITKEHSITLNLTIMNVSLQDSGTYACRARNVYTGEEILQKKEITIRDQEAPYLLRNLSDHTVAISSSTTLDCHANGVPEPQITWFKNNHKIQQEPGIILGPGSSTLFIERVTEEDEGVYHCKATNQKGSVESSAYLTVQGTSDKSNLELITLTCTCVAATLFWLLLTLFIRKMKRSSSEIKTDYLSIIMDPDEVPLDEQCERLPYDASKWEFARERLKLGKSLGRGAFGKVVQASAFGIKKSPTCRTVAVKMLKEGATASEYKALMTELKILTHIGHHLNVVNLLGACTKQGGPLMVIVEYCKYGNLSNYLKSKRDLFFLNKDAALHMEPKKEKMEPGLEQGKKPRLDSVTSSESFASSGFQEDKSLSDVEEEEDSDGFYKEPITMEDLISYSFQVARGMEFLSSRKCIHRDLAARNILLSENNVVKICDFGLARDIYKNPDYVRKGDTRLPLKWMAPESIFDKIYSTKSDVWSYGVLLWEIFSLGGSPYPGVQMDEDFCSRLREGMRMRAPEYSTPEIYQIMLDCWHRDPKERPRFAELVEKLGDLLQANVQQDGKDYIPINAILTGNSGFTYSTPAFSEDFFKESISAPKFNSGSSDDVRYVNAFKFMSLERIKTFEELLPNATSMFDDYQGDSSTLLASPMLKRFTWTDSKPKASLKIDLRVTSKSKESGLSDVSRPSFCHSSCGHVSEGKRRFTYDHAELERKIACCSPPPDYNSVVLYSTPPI
as §5, with “Flt1 human” for “ErbB4 (h)”, “250 μM KKKSPGEYVNIEFG,” for “10 mM MnCl2, 0.1 mg/ml poly(Glu, Tyr) 4:1,”, “[γ-^33P-ATP]” for “[γ-33P-ATP]”, “P30 filtermat” for “Filtermat A”

Another experiment concerns the target Lck (h) (Homo sapiens, UniProt P06239). Put plainly: Kinase profiling, glass-fiber filter technology: Lck. Conditions: test concentration of 10^−6 M; read-out: Lck inhibition score. The procedure: as §1, §2, §3, §4
In a final reaction volume of 25 μl, Lck (h) (5-10 mU) is incubated with 50 mM Tris pH 7.5, 0.1 mM EGTA, 0.1 mM Na3VO4, 250 μM KVEKIGEGTYGVVYK (Cdc2 peptide), 10 mM MgAcetate and [γ-^33P-ATP] (specific activity approx. 500 cpm/pmol, concentration as required). The reaction is initiated by the addition of the MgATP mix. After incubation for 40 minutes at room temperature, the reaction is stopped by the addition of 5 μl of a 3% phosphoric acid solution.
10 μl of the reaction is then spotted onto a P30 filtermat and washed three times for 5 minutes in 75 mM phosphoric acid and once in methanol prior to drying and scintillation counting.

The target of a further experiment is Ret human (Homo sapiens, UniProt P07949). The experiment in a line: Kinase profiling, glass-fiber filter technology: Ret. The settings on record: test concentration of 10^−6 M; read-out: Ret inhibition score. As for the experimental part:
as §1, §2, §3, §4
as §5, with “Ret human” for “ErbB4 (h)”, “250 μM KKKSPGEYVNIEFG,” for “10 mM MnCl2, 0.1 mg/ml poly(Glu, Tyr) 4:1,”, “[γ-^33P-ATP]” for “[γ-33P-ATP]”, “P30 filtermat” for “Filtermat A”

For a further experiment, the target named is Blk (m) (Mus musculus, UniProt P16277). Put plainly: Kinase profiling, glass-fiber filter technology: Blk. The settings on record: test concentration of 10^−6 M; read-out: Blkl inhibition score. The procedure: as §1, §2, §3, §4
Blk (m), sequence (P16277 whole entry): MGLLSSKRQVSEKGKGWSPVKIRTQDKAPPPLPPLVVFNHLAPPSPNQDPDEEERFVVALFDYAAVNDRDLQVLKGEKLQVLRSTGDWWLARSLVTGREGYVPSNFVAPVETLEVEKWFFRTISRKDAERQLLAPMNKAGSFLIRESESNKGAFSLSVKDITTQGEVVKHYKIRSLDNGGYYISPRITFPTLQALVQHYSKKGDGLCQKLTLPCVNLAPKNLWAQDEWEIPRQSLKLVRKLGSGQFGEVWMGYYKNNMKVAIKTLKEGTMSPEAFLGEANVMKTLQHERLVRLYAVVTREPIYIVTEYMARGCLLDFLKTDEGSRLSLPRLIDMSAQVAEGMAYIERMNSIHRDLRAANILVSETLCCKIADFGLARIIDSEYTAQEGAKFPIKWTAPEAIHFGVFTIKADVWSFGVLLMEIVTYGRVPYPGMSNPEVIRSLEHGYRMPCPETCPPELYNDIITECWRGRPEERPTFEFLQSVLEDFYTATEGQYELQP
as §5, with “Blk (m)” for “ErbB4 (h)”, “50” for “8”, “Tris” for “MOPS”, “7.5, 0.1” for “7.0, 0.2”, “EGTA, 0.1” for “EDTA, 10”, “Na3VO4, 0.1% β-mercaptoethanol,” for “MnCl2,”

Another experiment deals with Lyn (h) (Homo sapiens, UniProt P07948). The experiment in a line: Kinase profiling, glass-fiber filter technology: Lyn. Conditions: test concentration of 10^−6 M; read-out: Lyn inhibition score. The procedure:
as §1, §2, §3, §4
In a final reaction volume of 25 μl, Lyn (h) (5-10 mU) is incubated with 50 mM Tris pH 7.5, 0.1 mM EGTA, 0.1 mM Na3VO4, 0.1% β-mercaptoethanol, 0.1 mg/ml poly(Glu, Tyr) 4:1, 10 mM MgAcetate and [γ-^33P-ATP] (specific activity approx. 500 cpm/pmol, concentration as required). The reaction is initiated by the addition of the MgATP mix. After incubation for 40 minutes at room temperature, the reaction is stopped by the addition of 5 μl of a 3% phosphoric acid solution. 10 μl of the reaction is then spotted onto a Filtermat A and washed three times for 5 minutes in 75 mM phosphoric acid and once in methanol prior to drying and scintillation counting.

For the next experiment, the target named is Fgr human (Homo sapiens, UniProt P09769). Put plainly: Kinase profiling, glass-fiber filter technology: Fgr. The settings on record: test concentration of 10^−6 M; read-out: Fgr inhibition score. As for the experimental part: as §1, §2, §3, §4
Fgr human, sequence (P09769 whole entry): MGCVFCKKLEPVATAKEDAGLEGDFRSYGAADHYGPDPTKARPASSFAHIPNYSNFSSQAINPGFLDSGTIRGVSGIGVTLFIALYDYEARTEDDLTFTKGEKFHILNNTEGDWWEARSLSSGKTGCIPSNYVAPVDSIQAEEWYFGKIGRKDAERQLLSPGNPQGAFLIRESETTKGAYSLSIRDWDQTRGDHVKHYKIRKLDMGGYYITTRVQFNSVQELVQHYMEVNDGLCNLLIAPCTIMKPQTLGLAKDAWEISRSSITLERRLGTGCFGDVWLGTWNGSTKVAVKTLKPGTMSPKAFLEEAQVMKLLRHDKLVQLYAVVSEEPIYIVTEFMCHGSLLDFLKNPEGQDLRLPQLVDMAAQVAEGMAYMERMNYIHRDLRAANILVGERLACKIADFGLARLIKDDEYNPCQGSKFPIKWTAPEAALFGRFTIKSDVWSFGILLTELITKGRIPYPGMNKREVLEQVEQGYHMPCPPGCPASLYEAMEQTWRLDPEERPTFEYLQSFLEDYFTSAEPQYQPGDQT
as §5, with “Fgr human” for “ErbB4 (h)”, “EDTA,” for “EDTA, 10 mM MnCl2,”, “[γ-^33P-ATP]” for “[γ-33P-ATP]”

ErbB4 (h), sequence (Q15303 26-1308): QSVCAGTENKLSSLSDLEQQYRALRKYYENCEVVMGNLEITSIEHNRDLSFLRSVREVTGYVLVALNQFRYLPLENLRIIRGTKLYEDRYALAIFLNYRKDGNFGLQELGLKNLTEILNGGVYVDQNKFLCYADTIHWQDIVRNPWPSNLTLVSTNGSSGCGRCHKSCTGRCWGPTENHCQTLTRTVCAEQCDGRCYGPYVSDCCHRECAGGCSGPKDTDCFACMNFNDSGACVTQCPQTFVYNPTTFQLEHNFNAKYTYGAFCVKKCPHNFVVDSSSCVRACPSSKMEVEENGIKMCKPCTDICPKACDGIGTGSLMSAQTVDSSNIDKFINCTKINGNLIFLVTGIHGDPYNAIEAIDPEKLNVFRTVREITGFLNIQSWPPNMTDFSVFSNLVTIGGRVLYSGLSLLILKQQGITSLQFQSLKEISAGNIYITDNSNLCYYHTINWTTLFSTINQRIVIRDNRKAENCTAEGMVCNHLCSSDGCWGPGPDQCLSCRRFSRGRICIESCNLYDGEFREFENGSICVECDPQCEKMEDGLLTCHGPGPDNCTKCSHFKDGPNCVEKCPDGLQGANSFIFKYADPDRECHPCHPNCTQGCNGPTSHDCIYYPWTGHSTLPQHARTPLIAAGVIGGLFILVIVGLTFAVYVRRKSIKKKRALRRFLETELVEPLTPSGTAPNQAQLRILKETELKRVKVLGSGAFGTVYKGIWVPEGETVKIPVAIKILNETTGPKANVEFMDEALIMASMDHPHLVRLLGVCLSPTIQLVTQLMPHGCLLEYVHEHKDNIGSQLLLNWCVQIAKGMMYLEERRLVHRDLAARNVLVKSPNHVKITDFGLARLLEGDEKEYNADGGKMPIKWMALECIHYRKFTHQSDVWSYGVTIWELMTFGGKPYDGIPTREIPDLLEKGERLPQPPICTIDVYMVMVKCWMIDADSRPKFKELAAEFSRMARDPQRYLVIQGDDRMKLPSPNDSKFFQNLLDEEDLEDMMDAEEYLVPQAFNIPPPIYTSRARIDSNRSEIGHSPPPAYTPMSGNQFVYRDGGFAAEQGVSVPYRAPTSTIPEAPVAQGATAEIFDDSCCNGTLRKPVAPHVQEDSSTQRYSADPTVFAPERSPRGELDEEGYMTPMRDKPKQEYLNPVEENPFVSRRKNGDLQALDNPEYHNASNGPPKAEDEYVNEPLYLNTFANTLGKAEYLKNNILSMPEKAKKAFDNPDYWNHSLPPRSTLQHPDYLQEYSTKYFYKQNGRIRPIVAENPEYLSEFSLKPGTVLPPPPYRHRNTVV
Lck (h), sequence (P06239 whole entry): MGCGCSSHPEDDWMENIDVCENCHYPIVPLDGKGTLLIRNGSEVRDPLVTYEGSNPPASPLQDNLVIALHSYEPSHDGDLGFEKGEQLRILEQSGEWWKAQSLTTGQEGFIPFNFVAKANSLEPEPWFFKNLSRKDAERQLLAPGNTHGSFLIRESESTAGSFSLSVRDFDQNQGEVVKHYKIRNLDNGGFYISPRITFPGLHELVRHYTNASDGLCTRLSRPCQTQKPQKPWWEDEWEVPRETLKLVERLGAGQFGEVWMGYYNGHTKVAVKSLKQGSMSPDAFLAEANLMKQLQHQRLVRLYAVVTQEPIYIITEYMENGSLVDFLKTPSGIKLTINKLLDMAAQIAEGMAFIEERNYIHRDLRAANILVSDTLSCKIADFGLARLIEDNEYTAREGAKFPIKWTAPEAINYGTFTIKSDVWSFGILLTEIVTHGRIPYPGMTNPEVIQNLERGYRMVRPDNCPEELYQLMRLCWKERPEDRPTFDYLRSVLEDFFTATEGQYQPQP
Lyn (h), sequence (P07948 whole entry): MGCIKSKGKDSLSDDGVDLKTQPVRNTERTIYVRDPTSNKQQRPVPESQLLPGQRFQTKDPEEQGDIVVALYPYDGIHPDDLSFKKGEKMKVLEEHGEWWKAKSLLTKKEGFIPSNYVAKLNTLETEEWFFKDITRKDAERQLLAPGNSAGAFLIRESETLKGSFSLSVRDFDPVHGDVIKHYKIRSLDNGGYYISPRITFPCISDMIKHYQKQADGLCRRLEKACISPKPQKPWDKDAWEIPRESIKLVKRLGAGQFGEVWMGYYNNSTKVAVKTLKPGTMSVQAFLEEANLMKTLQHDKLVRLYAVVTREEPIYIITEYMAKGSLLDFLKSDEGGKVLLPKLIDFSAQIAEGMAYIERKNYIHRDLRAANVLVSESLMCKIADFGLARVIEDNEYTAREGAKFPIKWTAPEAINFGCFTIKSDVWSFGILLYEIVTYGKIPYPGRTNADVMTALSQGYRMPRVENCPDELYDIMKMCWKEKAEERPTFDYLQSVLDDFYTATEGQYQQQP

With `CC(=O)NCCNCCCOc1cc2ncnc3c2cc1OCCCNC(=O)[C@H](C)N(C)Cc1cc(F)c(Cl)cc1N3` [Compound 4], the inhibition at 1 µM was 30 to 60% at ErbB4 (h); 30 to 60% on Flt1 human; over 80% at Lck (h); over 80% on Ret human; over 80% at Blk (m).
Consider `CC(=O)NCCNCCCOc1cc2ncnc3c2cc1OCCCCCN(C)Cc1ccc(Br)cc1N3` [Compound 13], for which the inhibition at 1 µM at Lyn (h), at ErbB4 (h), at Flt1 human, on Lck (h), on Ret human and at Fgr human was over 80% each time. Also, on Blk (m), the inhibition at 1 µM was over 80%.
With `C#Cc1ccc2c(c1)Nc1ncnc3cc(OCCCNCCS(C)(=O)=O)c(cc13)OCCCCCN(C)C2` [Compound 20], the inhibition at 1 µM at Lyn (h), at ErbB4 (h), at Flt1 human, at Lck (h), on Ret human and at Fgr human was over 80% throughout. Besides, the inhibition at 1 µM at Blk (m) is over 80%.
With `CN1CCCCCOc2cc3c(ncnc3cc2OC[C@H](O)CNCCOCCO)Nc2cc(Cl)c(F)cc2C1` [Compound 17], the inhibition at 1 µM at Lyn (h), at ErbB4 (h) and at Lck (h) was over 80% in each case.
As to `C[C@H]1C(=O)NCCCOc2cc3c(ncnc3cc2OCCCN2CCN(C(=O)OC(C)(C)C)CC2)Nc2cc(Cl)c(F)cc2CN1C` [Int. 16], the inhibition at 1 µM is over 80% on Lyn (h); 10 to 30% at ErbB4 (h); 60 to 80% on Flt1 human; over 80% at Lck (h); over 80% on Ret human; 10 to 30% on Fgr human. Moreover, at Blk (m), the inhibition at 1 µM is over 80%.
For the compound `CN1CCCCCOc2cc3c(ncnc3cc2OCCCNC(=O)OC(C)(C)C)Nc2cc(Br)ccc2C1` [Compound 11], the inhibition at 1 µM was 30 to 60% on Lyn (h); 10 to 30% on ErbB4 (h); 30 to 60% on Flt1 human; over 80% at Ret human; 10 to 30% on Fgr human; 30 to 60% at Blk (m).
In the case of `CN1CCCCCOc2cc3c(ncnc3cc2OCCCN2CCS(=O)(=O)CC2)Nc2cc(Cl)c(F)cc2C1` [Compound 19], the inhibition at 1 µM at ErbB4 (h) was 60 to 80%; at Flt1 human it was over 80%; on Lck (h), over 80%; on Ret human, over 80%; on Fgr human it was 60 to 80%; on Blk (m), over 80%.
In the case of `CC(=O)NCCN1CCN(CCCOc2cc3ncnc4c3cc2OCCCNC(=O)[C@H](C)N(C)Cc2cc(F)c(Cl)cc2N4)CC1` [Compound 6], the values for the inhibition at 1 µM at Lyn (h), on ErbB4 (h) and at Lck (h) were over 80%, 60 to 80% and over 80%, respectively.
`COCCOCCOc1cc2ncnc3c2cc1OCCCCCN(C)Cc1ccc(Br)cc1N3` [Int. 43]: the inhibition at 1 µM is over 80% on Lyn (h); 10 to 30% on ErbB4 (h); 60 to 80% at Flt1 human; over 80% on Lck (h); over 80% on Ret human; 30 to 60% at Fgr human. Further, at Blk (m), the inhibition at 1 µM lay in the range of 60 to 80%.
For `CN1CCCCCOc2cc3c(ncnc3cc2OC[C@@H](O)CN2CCS(=O)(=O)CC2)Nc2cc(Br)ccc2C1` [Compound 12], the inhibition at 1 µM on Lyn (h) is over 80%; on ErbB4 (h), 60 to 80%; at Flt1 human, 60 to 80%; at Lck (h) it was over 80%; on Ret human, over 80%; at Fgr human, 60 to 80%. Moreover, the inhibition at 1 µM at Blk (m) was over 80%.
For `COc1cc2ncnc3c2cc1OCCCN(CCCN1CCOCC1)C(=O)[C@H](CC(C)C)NC(=O)Cc1ccc(Br)cc1N3` [Int. 25], the inhibition at 1 µM at Lyn (h) lay in the range of 60 to 80%; at ErbB4 (h) it was 30 to 60%; on Flt1 human, 10 to 30%; at Lck (h), 60 to 80%; at Ret human it was 30 to 60%; at Blk (m) it was 30 to 60%.
Consider `COc1cc2ncnc3c2cc1OCCCN(CCN1CCOCC1)C(=O)CNC(=O)Cc1ccc(Cl)cc1N3` [Compound 15], for which the inhibition at 1 µM on Lyn (h) lay within 60 to 80%; on ErbB4 (h) it was 10 to 30%; on Flt1 human it was 10 to 30%; at Lck (h), 30 to 60%; on Ret human it was 10 to 30%; at Blk (m) it was 30 to 60%.
For the compound `CC(=O)N(CCO)CCCOc1cc2ncnc3c2cc1OCCCNC(=O)[C@H](C)N(C)Cc1cc(F)c(Cl)cc1N3` [Compound 5], the inhibition at 1 µM at Lyn (h) was over 80%; on ErbB4 (h), 10 to 30%; on Flt1 human it was 30 to 60%; at Lck (h), 60 to 80%; on Ret human, 60 to 80%; at Fgr human it was 10 to 30%. Further, the inhibition at 1 µM on Blk (m) is over 80%.
For `CC(=O)OCCN(C)CCCOc1cc2ncnc3c2cc1OCCCNC(=O)[C@H](C)N(C)Cc1cc(F)c(Cl)cc1N3` [Compound 2], the inhibition at 1 µM on ErbB4 (h) is 30 to 60%; at Flt1 human it was 30 to 60%; at Lck (h), over 80%; at Ret human it was over 80%; at Fgr human it was 10 to 30%; at Blk (m) it was over 80%.
As for `CN1CCCCCOc2cc3c(ncnc3cc2OCCCNCCS(C)(=O)=O)Nc2cc(Cl)c(F)cc2C1` [Compound 18], the inhibition at 1 µM at Lyn (h), on ErbB4 (h) and at Lck (h) was over 80% each time.
